Measured values as given in the supplement of paper PMC10307832.

Experiments:
Assay in all cases: relative viability (nuclei count vs DMSO), 5 days (fraction); higher = more cells survive
NCI-H650 = system: NCI-H650
How it was run: (§1)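 Lung cancer cell lines, seeded in 1536-well plates, were treated the following day by pin tool with a single drug or with five library-drug doses (not always all listed) in √10 steps on top of a fixed anchor-drug dose. Cells were fixed and nuclei stained in one step after 5 days, and nuclei were counted. Relative viability is the nuclei count for treated wells divided by that for vehicle wells, reported as medians of duplicate plates.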

SW 1573 = system: SW 1573
How it was run: as §1

NCI-H2023 = system: NCI-H2023
How it was run: as §1

NCI-H1993 = system: NCI-H1993
How it was run: as §1

NCI-H1915 = system: NCI-H1915
How it was run: as §1

NCI-H838 = system: NCI-H838
How it was run: as §1

PC-14 = system: PC-14
How it was run: as §1

NCI-H2126 = system: NCI-H2126
How it was run: as §1

EPLC-272H = system: EPLC-272H
How it was run: as §1

HCC-15 = system: HCC-15
How it was run: as §1

HOP-62 = system: HOP-62
How it was run: as §1

UMC-11 = system: UMC-11
How it was run: as §1

LC-2-ad = system: LC-2-ad
How it was run: as §1

NCI-H2085 = system: NCI-H2085
How it was run: as §1

LU99A = system: LU99A
How it was run: as §1

HARA = system: HARA
How it was run: as §1

NCI-H2347 = system: NCI-H2347
How it was run: as §1

HCC-44 = system: HCC-44
How it was run: as §1

COR-L23 = system: COR-L23
How it was run: as §1

NCI-H1355 = system: NCI-H1355
How it was run: as §1

NCI-H1651 = system: NCI-H1651
How it was run: as §1

Compound: CC(=O)O[C@@]12CO[C@@H]1C[C@H](O)[C@@]1(C)C(=O)[C@H](O)C3=C(C)[C@@H](OC(=O)[C@H](O)[C@@H](NC(=O)OC(C)(C)C)c4ccccc4)C[C@@](O)([C@@H](OC(=O)c4ccccc4)[C@H]21)C3(C)C [Docetaxel] + Nc1nc2[nH]cc(CCc3ccc(C(=O)N[C@@H](CCC(=O)O)C(=O)O)cc3)c2c(=O)[nH]1 [Pemetrexed] (partner 0.2 µM)
- relative viability (NCI-H650; first compound 0.0002 µM): 0.941
- relative viability (NCI-H650; first compound 0.000632 µM): 0.44
- relative viability (NCI-H650; first compound 0.002 µM): 0.393
- relative viability (NCI-H650; first compound 0.006325 µM): 0.237
- relative viability (NCI-H650; first compound 0.02 µM): 0.198
- relative viability (SW 1573; first compound 0.0002 µM): 0.557
- relative viability (SW 1573; first compound 0.000632 µM): 0.478
- relative viability (SW 1573; first compound 0.002 µM): 0.236
- relative viability (SW 1573; first compound 0.006325 µM): 0.146
- relative viability (SW 1573; first compound 0.02 µM): 0.138
- relative viability (NCI-H2023; first compound 0.0002 µM): 0.208
- relative viability (NCI-H2023; first compound 0.000632 µM): 0.197
- relative viability (NCI-H2023; first compound 0.002 µM): 0.144
- relative viability (NCI-H2023; first compound 0.006325 µM): 0.124
- relative viability (NCI-H2023; first compound 0.02 µM): 0.0817
- relative viability (NCI-H1993; first compound 0.0002 µM): 0.641
- relative viability (NCI-H1993; first compound 0.000632 µM): 0.762
- relative viability (NCI-H1993; first compound 0.002 µM): 0.64
- relative viability (NCI-H1993; first compound 0.006325 µM): 0.444
- relative viability (NCI-H1993; first compound 0.02 µM): 0.391
- relative viability (NCI-H1915; first compound 0.0002 µM): 0.562
- relative viability (NCI-H1915; first compound 0.000632 µM): 0.47
- relative viability (NCI-H1915; first compound 0.002 µM): 0.327
- relative viability (NCI-H1915; first compound 0.006325 µM): 0.152
- relative viability (NCI-H1915; first compound 0.02 µM): 0.108
- relative viability (NCI-H838; first compound 0.0002 µM): 0.247
- relative viability (NCI-H838; first compound 0.000632 µM): 0.27
- relative viability (NCI-H838; first compound 0.002 µM): 0.22
- relative viability (NCI-H838; first compound 0.006325 µM): 0.157
- relative viability (NCI-H838; first compound 0.02 µM): 0.134
- relative viability (PC-14; first compound 0.0002 µM): 0.13
- relative viability (PC-14; first compound 0.000632 µM): 0.144
- relative viability (PC-14; first compound 0.002 µM): 0.129
- relative viability (PC-14; first compound 0.006325 µM): 0.0511
- relative viability (PC-14; first compound 0.02 µM): 0.0414
- relative viability (NCI-H2126; first compound 0.0002 µM): 0.79
- relative viability (NCI-H2126; first compound 0.000632 µM): 0.661
- relative viability (NCI-H2126; first compound 0.002 µM): 0.456
- relative viability (NCI-H2126; first compound 0.006325 µM): 0.391
- relative viability (EPLC-272H; first compound 0.0002 µM): 0.298
- relative viability (EPLC-272H; first compound 0.000632 µM): 0.187
- relative viability (EPLC-272H; first compound 0.002 µM): 0.139
- relative viability (EPLC-272H; first compound 0.006325 µM): 0.0965
- relative viability (EPLC-272H; first compound 0.02 µM): 0.111
- relative viability (HCC-15; first compound 0.0002 µM): 0.235
- relative viability (HCC-15; first compound 0.000632 µM): 0.242
- relative viability (HCC-15; first compound 0.002 µM): 0.262
- relative viability (HCC-15; first compound 0.006325 µM): 0.273
- relative viability (HCC-15; first compound 0.02 µM): 0.181
- relative viability (HOP-62; first compound 0.0002 µM): 0.324
- relative viability (HOP-62; first compound 0.000632 µM): 0.362
- relative viability (HOP-62; first compound 0.002 µM): 0.304
- relative viability (UMC-11; first compound 0.0002 µM): 0.717
- relative viability (UMC-11; first compound 0.000632 µM): 0.698
- relative viability (UMC-11; first compound 0.002 µM): 0.325
- relative viability (UMC-11; first compound 0.006325 µM): 0.256
- relative viability (UMC-11; first compound 0.02 µM): 0.195
- relative viability (LC-2-ad; first compound 0.0002 µM): 0.259
- relative viability (LC-2-ad; first compound 0.000632 µM): 0.221
- relative viability (LC-2-ad; first compound 0.006325 µM): 0.173
- relative viability (LC-2-ad; first compound 0.02 µM): 0.181
- relative viability (NCI-H2085; first compound 0.0002 µM): 0.84
- relative viability (NCI-H2085; first compound 0.000632 µM): 0.902
- relative viability (NCI-H2085; first compound 0.002 µM): 0.552
- relative viability (NCI-H2085; first compound 0.006325 µM): 0.545
- relative viability (NCI-H2085; first compound 0.02 µM): 0.301
- relative viability (LU99A; first compound 0.0002 µM): 0.208
- relative viability (LU99A; first compound 0.000632 µM): 0.201
- relative viability (LU99A; first compound 0.002 µM): 0.217
- relative viability (LU99A; first compound 0.006325 µM): 0.207
- relative viability (LU99A; first compound 0.02 µM): 0.19
- relative viability (HARA; first compound 0.0002 µM): 0.196
- relative viability (HARA; first compound 0.000632 µM): 0.247
- relative viability (HARA; first compound 0.002 µM): 0.247
- relative viability (HARA; first compound 0.006325 µM): 0.188
- relative viability (HARA; first compound 0.02 µM): 0.142
- relative viability (NCI-H2347; first compound 0.0002 µM): 0.422
- relative viability (NCI-H2347; first compound 0.000632 µM): 0.446
- relative viability (NCI-H2347; first compound 0.002 µM): 0.419
- relative viability (NCI-H2347; first compound 0.006325 µM): 0.429
- relative viability (NCI-H2347; first compound 0.02 µM): 0.357
- relative viability (HCC-44; first compound 0.0002 µM): 0.627
- relative viability (HCC-44; first compound 0.000632 µM): 0.644
- relative viability (HCC-44; first compound 0.002 µM): 0.628
- relative viability (HCC-44; first compound 0.006325 µM): 0.602
- relative viability (HCC-44; first compound 0.02 µM): 0.491
- relative viability (COR-L23; first compound 0.0002 µM): 0.189
- relative viability (COR-L23; first compound 0.000632 µM): 0.184
- relative viability (COR-L23; first compound 0.002 µM): 0.186
- relative viability (COR-L23; first compound 0.006325 µM): 0.167
- relative viability (NCI-H1355; first compound 0.0002 µM): 1.09
- relative viability (NCI-H1355; first compound 0.000632 µM): 0.958
- relative viability (NCI-H1355; first compound 0.002 µM): 0.789
- relative viability (NCI-H1355; first compound 0.006325 µM): 0.309
- relative viability (NCI-H1355; first compound 0.02 µM): 0.198
- relative viability (NCI-H1651; first compound 0.0002 µM): 0.443
- relative viability (NCI-H1651; first compound 0.000632 µM): 0.593
- relative viability (NCI-H1651; first compound 0.002 µM): 0.447
- relative viability (NCI-H1651; first compound 0.006325 µM): 0.175
